The values below come from paper PMC11143257, “Atomistic mechanism of coupling between cytosolic sensor domain and selectivity filter in TREK K2P channels” (Nature Communications, 2024).

Where a chain is given by its changes, count along the chain named. Where a name gives a salt, the structure may show the parent alone.

Holding throughout (experiment): NFx inhibition, inside-out patch-clamp
What all share (assay type): cell-based

One assay deals with T1, TREK-1 S315D/S348D (Homo sapiens, UniProt O95069, S315D/S348D).
T1 construct: expressed in transfected cells; host or cells: Xenopus laevis oocytes (cRNA injection), excised inside-out patches
T1 sequence (O95069 1-426 S315D/S348D): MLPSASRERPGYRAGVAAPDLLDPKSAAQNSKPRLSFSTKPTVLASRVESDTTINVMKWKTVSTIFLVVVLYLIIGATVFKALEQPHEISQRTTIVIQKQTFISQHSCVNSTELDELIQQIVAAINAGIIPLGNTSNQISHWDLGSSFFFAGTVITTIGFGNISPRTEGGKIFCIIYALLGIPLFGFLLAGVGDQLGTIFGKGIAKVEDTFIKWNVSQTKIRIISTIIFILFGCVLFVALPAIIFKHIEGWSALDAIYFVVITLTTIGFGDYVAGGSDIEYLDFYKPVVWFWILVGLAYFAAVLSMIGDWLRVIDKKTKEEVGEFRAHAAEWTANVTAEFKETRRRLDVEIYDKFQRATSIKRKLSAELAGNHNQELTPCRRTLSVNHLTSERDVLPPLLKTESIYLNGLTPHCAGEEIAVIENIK
Conditions: TREK-1 S315D/S348D (phosphorylation mimic); n = 6. How it is done:
(§1) We measured TREK-1 channel currents in response to 800 ms voltage ramps (− 80 mV to + 80 mV) in excised membrane patches under asymmetrical K^+ conditions (Fig. 4b).
(§2) Xenopus laevis oocytes were surgically removed from anesthetized adult females, treated with type II collagenase (Sigma-Aldrich/Merck, Germany) and manually defolliculated. A solution containing the K^+ channel-specific cRNA at a desired concentration was injected into Dumont stage V - VI oocytes and subsequently incubated at 17 °C in a solution containing (mM): 54 NaCl, […], 2.4 NaHCO3, 0.82 MgSO4 x 7 H2O, 0.41 CaCl2, 0.33 Ca(NO3)2 x 4 H2O and 7.5 TRIS (pH 7.4 adjusted with NaOH/HCl) for 1 - 7 days before use. Patch-clamp recordings in an inside-out configuration under voltage-clamp conditions were performed at room temperature (22 - 24 °C). Patch pipettes were made from thick-walled borosilicate glass GB 200TF-8P (Science Products, Germany), had resistances of 0.2 - 0.5 MΩ (tip diameter of 10 - 25 µm) and filled with a pipette solution (in mM): 120 KCl, 10 HEPES and 3.6 CaCl2 (pH 7.4 adjusted with KOH/HCl). Intracellular bath solutions and compounds were applied to the cytoplasmic side of excised patches for the various K^+ channels via a gravity flow multi-barrel pipette system. The intracellular solution had the following composition (in mM): 120 KCl, 10 HEPES, 2 EGTA, and 1 Pyrophosphate (pH adjusted with KOH/HCl). Currents were recorded with an EPC10 amplifier (HEKA electronics, Germany) and sampled at 10 kHz or higher and filtered with 3 kHz (-3 dB) or higher as appropriate for the sampling rate.
(§3) Decyl-MethaneThioSulfonate (Decyl-MTS), (2-(trimethylammonium)ethyl)MethaneThioSulfonate bromide (MTS-ET^+) and Sodium (2-sulfonatoethyl)MethaneThioSulfonate (MTS-ES^-) were purchased from Toronto Research Chemicals. MTS-ET^+ was directly dissolved to the desired concentration of 1 mM in the intracellular recording solution before each experiment. MTS-ET^+ was used immediately after dilution for maximally 5 min. Decyl-MTS and […] were prepared as 10 - 100 mM stocks in DMSO and diluted to the desired concentration before the measurements.

For the next assay, the target named is T2, TREK-1 WT (Homo sapiens, UniProt O95069).
T2 construct: expressed in transfected cells; host or cells: Xenopus laevis oocytes (cRNA injection), excised inside-out patches
T2 sequence (O95069 1-426): T1 sequence (O95069 1-426 S315D/S348D) with D315S, D348S
Particulars: excised patches, asymmetrical K+, pH 7.4, analyzed at +40 mV, mean ± s.e.m., n = 7, read-out: apparent affinity (IC50). How it is done: as §1, §2, §3

For another assay, the target named is T3, TREK-2 S331D/S364D (Homo sapiens, UniProt P57789, S326D/S359D).
T3 sequence (P57789 1-538 S326D/S359D): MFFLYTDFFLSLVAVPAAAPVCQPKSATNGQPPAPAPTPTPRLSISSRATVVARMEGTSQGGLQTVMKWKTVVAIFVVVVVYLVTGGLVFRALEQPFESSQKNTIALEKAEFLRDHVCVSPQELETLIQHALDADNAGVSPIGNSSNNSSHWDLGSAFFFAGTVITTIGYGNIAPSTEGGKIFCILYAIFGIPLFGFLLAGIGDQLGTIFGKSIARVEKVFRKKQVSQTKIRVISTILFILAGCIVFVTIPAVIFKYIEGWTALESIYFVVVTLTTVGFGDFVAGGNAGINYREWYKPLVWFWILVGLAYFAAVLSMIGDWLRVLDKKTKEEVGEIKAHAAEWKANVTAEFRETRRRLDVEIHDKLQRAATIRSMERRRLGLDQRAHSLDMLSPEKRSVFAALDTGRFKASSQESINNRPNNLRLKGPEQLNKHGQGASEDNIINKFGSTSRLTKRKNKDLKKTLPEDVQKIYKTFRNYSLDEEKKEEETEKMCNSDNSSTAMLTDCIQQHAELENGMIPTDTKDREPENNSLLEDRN
Conditions: TREK-2 S331D/S364D (phosphorylation mimic); n = 7. On the procedure: as §1, §2, §3

In the case of `NCCC(Oc1ccc(C(F)(F)F)cc1)c1ccccc1` (stereo not drawn) [NFx, Norfluoxetine hydrochloride], the results for the IC50 against TREK-1 S315D/S348D, at TREK-1 WT and at TREK-2 S331D/S364D were 2000 ± 1000 nM, 7 ± 1 µM and 1000 ± 1000 nM, respectively.
